According to ChEMBL document CHEMBL1201862, “PubChem BioAssay data set” (2004):
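Cultured in 96-well plates, cells were exposed to test compound for 48 hours across five concentrations. Abbreviation: GI50, concentration required for 50% inhibition of growth.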 Active and inactive are the calls of the source. No stated cut-off is given here; in the data, active = GI50 up to about 1.1 µM and inactive = higher.

Legend:
Assay in all cases: NCI tumour cell line growth inhibition, 48 h
BT-549 = system: BT-549
CAKI-1 = system: CAKI-1
DU-145 = system: DU-145
HOP-62 = system: HOP-62
HOP-92 = system: HOP-92
LOX IMVI = system: LOX IMVI
MCF7 = system: MCF7
MDA-MB-231 = system: MDA-MB-231
NCI-H522 = system: NCI-H522
OVCAR-3 = system: OVCAR-3
OVCAR-4 = system: OVCAR-4
OVCAR-8 = system: OVCAR-8
PC-3 = system: PC-3
RXF 393 = system: RXF 393
SK-MEL-2 = system: SK-MEL-2
SR = system: SR
T47D = system: T47D
TK-10 = system: TK-10
UACC-62 = system: UACC-62
UO-31 = system: UO-31

Measured: GI50

CC(=O)OC[C@@]1(C)[C@@H]2[C@@H]3[C@@]4(CO[C@]3(C)C(=O)[C@@]3(O)C[C@H](C)[C@H](OC(C)=O)[C@@H]3[C@H]4OC(C)=O)[C@H](OC(=O)c3ccccc3)C[C@@H]21
inactive: BT-549 > 100 µM | CAKI-1 > 100 µM | DU-145 > 100 µM | HOP-62 > 100 µM | HOP-92 > 100 µM | LOX IMVI > 100 µM | MCF7 > 100 µM | MDA-MB-231 > 100 µM | NCI-H522 > 100 µM | OVCAR-3 > 100 µM | OVCAR-4 > 100 µM | OVCAR-8 > 100 µM | PC-3 > 100 µM | RXF 393 > 100 µM | SK-MEL-2 > 100 µM | SR > 100 µM | T47D > 100 µM | TK-10 > 100 µM | UACC-62 > 100 µM | UO-31 > 100 µM

CSc1cc(Cl)c(C(=O)Nc2ccccc2)cc1S(=O)(=O)n1ccnc1O
inactive: BT-549 > 100 µM | CAKI-1 > 100 µM | DU-145 > 100 µM | HOP-62 > 100 µM | HOP-92 > 100 µM | LOX IMVI > 100 µM | MCF7 > 100 µM | MDA-MB-231 > 100 µM | NCI-H522 > 100 µM | OVCAR-3 > 100 µM | OVCAR-4 > 100 µM | OVCAR-8 > 100 µM | PC-3 > 100 µM | RXF 393 > 100 µM | SK-MEL-2 > 100 µM | SR > 100 µM | T47D > 100 µM | TK-10 > 100 µM | UACC-62 > 100 µM | UO-31 > 100 µM

COC1(OC)CCc2c(sc3ncnc(Nc4cccc(Br)c4)c23)C1
inactive: BT-549 94.2 µM | CAKI-1 30.6 µM | DU-145 10.9 µM | HOP-62 74.5 µM | HOP-92 30.5 µM | LOX IMVI 35.7 µM | MCF7 40.5 µM | MDA-MB-231 49.5 µM | NCI-H522 12.4 µM | OVCAR-3 > 100 µM | OVCAR-4 27.7 µM | OVCAR-8 34.6 µM | PC-3 43.3 µM | RXF 393 22.9 µM | SK-MEL-2 > 100 µM | SR 26.2 µM | T47D 23.1 µM | TK-10 10.6 µM | UACC-62 47.2 µM | UO-31 3.22 µM

O=c1[nH]cc(F)c(=O)[nH]1 [FLUOROURACIL]
inactive: BT-549 110 µM | CAKI-1 4.45 µM | DU-145 9.29 µM | HOP-62 21.8 µM | HOP-92 162 µM | LOX IMVI 6.03 µM | MCF7 1.75 µM | MDA-MB-231 489 µM | NCI-H522 37 µM | OVCAR-3 27.3 µM | OVCAR-4 69.7 µM | OVCAR-8 20.2 µM | PC-3 50.6 µM | RXF 393 54.1 µM | SK-MEL-2 372 µM | SR 4.36 µM | T47D 75.5 µM | TK-10 136 µM | UACC-62 13.9 µM | UO-31 5.64 µM

COc1ccc(SCc2cc(OC)ccc2OC)cc1
inactive: BT-549 16.1 µM | CAKI-1 31.9 µM | DU-145 44.4 µM | HOP-62 59.8 µM | HOP-92 13.5 µM | LOX IMVI 34.8 µM | MCF7 15.1 µM | MDA-MB-231 82.2 µM | NCI-H522 18.8 µM | OVCAR-3 > 40.6 µM | OVCAR-4 20.8 µM | OVCAR-8 96.4 µM | PC-3 32.8 µM | RXF 393 40.6 µM | SK-MEL-2 8.59 µM | SR 6.55 µM | T47D 25.5 µM | TK-10 > 93.3 µM | UACC-62 18.8 µM | UO-31 27.6 µM

Nc1ccc2c(c1)C(=O)c1ccc(F)cc1-2
inactive: BT-549 > 100 µM | CAKI-1 > 100 µM | DU-145 > 100 µM | HOP-62 > 100 µM | HOP-92 > 100 µM | LOX IMVI > 100 µM | MCF7 > 100 µM | MDA-MB-231 > 100 µM | NCI-H522 > 100 µM | OVCAR-3 > 100 µM | OVCAR-4 > 100 µM | OVCAR-8 > 100 µM | PC-3 > 100 µM | RXF 393 44.4 µM | SK-MEL-2 > 100 µM | SR 87.1 µM | T47D > 100 µM | TK-10 > 100 µM | UACC-62 > 100 µM | UO-31 > 100 µM
